Assay results from patent publication US9557319B2, “Cell-based arrays, methods of making, and methods of using” (University of Florida Research Foundation, Inc., priority 2010, dated 2017).
Marks after values point to notes of the source that are not given here.

Assays:
HCT116 cells [1] = assay: Proliferation of HCT116 cells incubated with soluble drugs in 96-well plates; type: cell-based, human; details: soluble drug, 24 h
Method: FIGS. 12A-12D are a series of graphs illustrating apoptosis and proliferation dose-response curves from HCT116 cells incubated with soluble drugs. FIG. 12A illustrates the percent of apoptotic HCT116 cells incubated 24 h with soluble nutlin-3a. […] Significant differences were determined by ANOVA, {F(5,282)=19.694, p<0.05}, followed by Tukey's post-hoc analysis. FIG. 12C illustrates the percent of non-proliferating HCT116 cells incubated 24 h with soluble nutlin-3a. Significant differences were determined by ANOVA, {F(4,226)=12.643, p<0.05}, followed by Tukey's post-hoc analysis. […] Significant differences were determined by ANOVA, {F(5,252)=102.485, p<0.05}, followed by Tukey's post-hoc analysis. (*: p<0.05 compared to all other conditions, #:p<0.05 from all conditions marked *).
Results were corroborated using soluble drugs in 96-well plates (FIGS. 12A-D).

[2] = Drug release from microarrayed drug-loaded EVA islands; type: physicochemical; details: release from drug-loaded EVA microarray, followed by steady release
Method: For drug release studies, polymer formulations were again made as described above. Glass coverslips were weighed prior to printing. Arrays consisting of 900 drug-loaded polymer islands were manufactured and allowed to dry overnight. Samples were weighed and placed in 3 ml of PBS containing 0.1% Tween-80 at 37° C. with gentle agitation. Samples were taken at the specified times and analyzed.

HCT116 cells [3] = assay: HCT116 proliferation (BrdU) on drug-eluting cellular microarray; type: cell-based, human; details: for Emax / drug sensitivity (1/D50): Nutlin dose response, non-proliferation, 24 h
Excerpt: (§1) Glass coverslips were cleaned in an oxygen plasma etcher (Terra Universal, Fullerton, Calif.). Arrays of isolated spots of (3-Aminopropyl) trimethoxysilane (NH2-terminated silane) (Sigma-Aldrich, St. Louis, Mo.) were robotically printed on clean coverslips using a Calligrapher Miniarrayer printer (Bio-Rad, Hercules, Calif.) with 1500 μm center to center distances and a pin diameter of 400 μm. The silane printed coverslips were then coated with 175 Å of titanium (Ti; 99.995% pure) and 225 Å of gold (Au; 99.999% pure) (Williams Advanced Materials, Buffalo, N.Y.). Following coating, gold-coated arrays were sonicated to remove gold from the amine spots, exposing NH2-terminated silane islands. The coverslips were incubated with 0.1 M, methyl-terminated alkanethiol (CH3(CH2)11SH) (Sigma) for 30 min. Substrates were incubated in 10% Pluronic® F-127 (BASF Corporation, USA) for 3 h and 1% heat-denatured BSA for 30 min to create a non-fouling surface around the adhesive amine islands. Three layers of the drug-loaded ethylene vinyl acetate (EVA) polymers were printed over the amine islands and placed in a desiccator between each successive layer. Poly-d-lysine (0.1%) was over-spotted onto the EVA films to promote cell attachment. […] Schematic diagrams of the arrays are illustrated in FIGS. 6A and 6B.
(§2) HCT116 (p53+/+, ATCC, Manassas, Va.) human colon cancer cells were maintained in McCoy's 5a Medium supplemented with 10% fetal bovine serum (Thermo Scientific, Waltham, Mass.), 1% penicillin G and 1% streptomycin (Thermo Scientific). The cells were cultured at 37° C. in a humidified incubator containing 5% CO2. Following microarray fabrication, 100,000 HCT116 cells were seeded over each array in 3 ml serum-free media and allowed to incubate on a rocking plate at room temperature until cell attachment to the EVA islands occurred, with minimal attachment to background, typically 10-15 min. Microarrays were gently washed in PBS, placed in a 35 mm petri dish with complete media, and placed in an incubator for 24-72 h.
(§3) Camptothecin-loaded microarrays were stained with Annexin V (BD Pharminigen), fixed in 4% paraformaldehyde, and placed in PBS with Hoechst dye 34580 (Invitrogen, USA) for 30 min. Azide-loaded microarrays were fixed with 4% paraformaldehyde and incubated with PBS containing Hoechst 34580 dye. Finally, nutlin-3a-loaded microarrays were fixed with 4% paraformaldehyde, stained with BrdU (BD Bioscience, San Jose, Calif.), and incubated in PBS containing Hoechst 34580 dye. All arrays were mounted with Fluoro-Gel (Electron Microscope Sciences, Hatfield, Pa.) and imaged using an Axiovert 200M microscope (Carl Zeiss, Oberkochen, Germany). Analysis was performed with Axiovision (Carl Zeiss, Oberkochen, Germany) by quantifying, in each drug-eluting island, the area of fluorescence and reported as relative fluorescence intensity (RFI).
(§4) Proliferation values were normalized to control (0 μM drug). Values for concentration-response curves were transformed to non-proliferation by subtracting the normalized value from 100%. Curve fitting analysis was performed to obtain Emax and D50 values using the equation E=E0+(Emax×D)/(D+D50) where E is the effect (either non-proliferation or apoptosis), E0 is the initial value, Emax is the maximum effect, D is the dose, and D50 is the dose at which a 50% maximum effect (Emax) is observed^34. Drug sensitivity values were obtained by taking the inverse of the D50 and multiplying by 100. Those values marked with “#” indicate that the r^2 value of the curve-fit was below 0.65. N/A values are present where negative parameters were obtained.
(§5) Hyperbolic curve fits were generated for the dose responses from a first drug in the presence of a fixed amount of a second drug for each combination (Tables 2 and 3, below). […]

CA1 CCSCs = assay: CA1 patient-derived CCSC proliferation on drug-eluting microarray; type: cell-based, human; details: for Emax / drug sensitivity (1/D50): Nutlin dose response, non-proliferation
Method: ALDH^high spheres were generated from tumor cells obtained from patients with colon cancer. Isolated cells were cultured in serum-free media as previously described^14 (reference 14 is hereby incorporated by reference herein with respect to methods for culturing cells in serum-free media). Using these cultures, adherent cell growth was established with 0.1% gelatin (Millipore) coatings on tissue culture plates (TPP, Switzerland) and the cells were serially propagated. For CA1 and CA2 cells, 25,000 cells were tested per array. Cells were seeded in PBS with 0.1% gelatin and treated identically to the microarrays with HCT116.
as §3, §4

HCT116 cells [4] = assay: HCT116 apoptosis (annexin V) on drug-eluting cellular microarray; type: cell-based, human; details: for drug sensitivity (1/D50): Nutlin dose response, apoptosis
Excerpt: as §1, §2, §3, §4, §5

## COc1ccc(C2=N[C@@H](c3ccc(Cl)cc3)[C@@H](c3ccc(Cl)cc3)N2C(=O)N2CCNC(=O)C2)c(OC(C)C)c1 [Nutlin-3a]
HCT116 cells [1]
  effect on reducing proliferation of HCT116 cells: dose-dependent effect
[2]
  burst release duration: approximately 8 h
HCT116 cells [3]; 50 μM CPT compared to 0 μM CPT, HCT116 proliferation
  increase in sensitivity to nutlin-3a on addition of camptothecin: over 5 fold
HCT116 cells [3]; HCT116, 24 h
  cell cycle arrest (ratio of non-proliferating cells) on single-drug microarray: dose-dependent cell cycle arrest
HCT116 cells [3]; 2nd drug CPT 0 μM
  Emax: 108 +/− 110
HCT116 cells [3]; 2nd drug CPT 0 μM, listed as Nutlin
  drug sensitivity (1/D50): 3.00 +/− 0.49*
HCT116 cells [3]; 2nd drug CPT 0 μM, listed as nutlin-3a
  drug sensitivity (1/D50): 3.0
HCT116 cells [3]; 2nd drug CPT 1 μM
  Emax: 96.1 +/− 25
  drug sensitivity (1/D50): 1.78 +/− 1.7
HCT116 cells [3]; 2nd drug CPT 10 μM
  Emax: 86.5 +/− 19
  drug sensitivity (1/D50): 2.97 +/− 3.7
HCT116 cells [3]; 2nd drug CPT 50 μM
  Emax: 81.4 +/− 1.9
HCT116 cells [3]; 2nd drug CPT 50 μM, listed as Nutlin
  drug sensitivity (1/D50): 19.6 +/− 12
HCT116 cells [3]; 2nd drug CPT 50 μM, listed as nutlin-3a
  drug sensitivity (1/D50): 19.6
CA1 CCSCs; 10 μM camptothecin present vs nutlin-3a alone, CA1
  increase in sensitivity to nutlin-3a: 75%
CA1 CCSCs; 50 μM camptothecin present vs nutlin-3a alone, CA1
  increase in Emax of the nutlin-3a concentration response curve: 115%
CA1 CCSCs; CA1 cells, single drug
  proliferation with increasing drug exposure: decreasing proliferation
CA1 CCSCs; 2nd drug CPT 0 μM, CA1
  Emax: 38.0
CA1 CCSCs; 2nd drug CPT 0 μM, CA1, listed as Nutlin
  drug sensitivity (1/D50): 28.6 +/− 4.7*
CA1 CCSCs; 2nd drug CPT 0 μM, CA1, listed as nutlin-3a
  drug sensitivity (1/D50): 28.6
CA1 CCSCs; 2nd drug CPT 1 μM, CA1
  Emax: 34.7 +/− 5.9
CA1 CCSCs; 2nd drug CPT 10 μM, CA1
  Emax: 50.9 +/− 0.15
CA1 CCSCs; 2nd drug CPT 10 μM, CA1, listed as Nutlin
  drug sensitivity (1/D50): 50.0 +/− 1.3*
CA1 CCSCs; 2nd drug CPT 10 μM, CA1, listed as nutlin-3a
  drug sensitivity (1/D50): 50.0
CA1 CCSCs; 2nd drug CPT 50 μM, CA1
  Emax: 81.7
  drug sensitivity (1/D50): 55.6 +/− 180
HCT116 cells [4]; 2nd drug CPT 10 μM
  drug sensitivity (1/D50): 2.48 +/− 0.83
HCT116 cells [4]; 2nd drug CPT 50 μM
  drug sensitivity (1/D50): 143 +/− 98
HCT116 cells [4]; administered alone, microarray
  effect on proportion of HCT116 cells that underwent apoptosis: no effect
HCT116 cells [4]; nutlin-3a alone, 125 μM loading
  proportion of HCT116 cells that underwent apoptosis: 5.6%
